Reference: article PMC7503713, “GANT61 Reduces Hedgehog Molecule (GLI1) Expression and Promotes Apoptosis in Metastatic Oral Squamous Cell Carcinoma Cells” (International Journal of Molecular Sciences, 2020)
pIC50: −log10 of the molar value.

Key:
Format in all cases: cell-based, human
HSC3 = test: alamarBlue cytotoxicity assay, HSC3; settings: 72 h of incubation
Method: For cytotoxicity assessments, this study primarily focused on the highly metastatic HSC3 OSCC cell line (JCRB Cell Bank, Osaka, Japan) and employed other histological tumor cell types and non-tumor cells (Supplementary Table S1). HSC3 cells were placed in flasks ([…], 250 mL volume) containing DMEM medium (Gibco, Lif Technologies, Gaithesburg, MD, USA) supplemented with 10% fetal bovine serum (FBS, Gibco, Life Technologies, Gaithesburg, MD, USA) 1% penicillin, 1% streptomycin (Gibco, Life Technologies, Gaithesburg, MD, USA), and 0.8% hydrocortisone (Sigma-Aldrich, St. Louis, MO, USA). Cells were cultured and kept in incubators, under an atmosphere of 5% CO2 at 37 °C. Trypsinization was used to dissociate cells when cell growth reached the necessary confluence, i.e., 70 to 80% of the total culture flask volume. Cell cultures were tested periodically for mycoplasma contamination and evaluated by using a luminometer, according to the MycoAlert^TM PLUS protocol (Lonza, Walkersville Inc., Walkersville, MD, USA, 2012).
(§1) To assess the cytotoxicity of the GLI inhibitor GANT61 (Sigma-Aldrich, St. Louis, MO, USA) in tumor and non-tumor cell lines, an alamarBlue assay (Sigma-Aldrich Chemical Co, St. Louis, MO, USA) was performed after 72 h of exposure to the inhibitor, as described by Ahmed et al., 1994 [46]. Cells were distributed on 96-well plates at a density of 7 × 10^4 cells/mL for adhered cells, and 3 × 10^5 cells/mL for cells in suspension. All tested compounds were dissolved in DMSO, added to wells containing 100 µL of cells in complete medium, and then incubated for 72 h. Eight concentrations of GANT61 (0.19 to 50 µg/mL), Doxorubicin (Laboratory IMA S.A.I.C., Buenos Aires, Argentina), and 5-Fluorouracil (5-FU, Sigma-Aldrich, St. Louis, MO, USA), both used as positive controls at concentrations ranging from 0.03 to 5 µg/mL, were added to respective wells. Cells treated with the vehicle (0.5% DMSO) used to dilute the tested compounds were used as negative controls. Before the end of the incubation period (4 h for cell lines and 24 h for PBMCs), 20 µL of alamarBlue stock solution (resazurin, Sigma-Aldrich, St. Louis, MO, USA) was added to each well. Absorbance was measured at 570 nm (reduced) and 595 nm (oxidized) wavelengths, using a Spectramax 190 plate reader (Molecular Devices; Sunnyvale, CA, USA).
(§2) Statistical analyses were performed, using GraphPad Prism v. 6.03 (GraphPad Software, Inc., San Diego, USA). Data were analyzed according to distribution along the normal Gaussian curve. […] Differences between groups resulting from in vitro assays were evaluated by ANOVA (analysis of variance) testing, followed by the Student–Newman–Keuls test. […]

HepG2 = test: alamarBlue cytotoxicity assay, HepG2; settings: 72 h of incubation
Method: as §1
(§3) Statistical analyses were performed, using GraphPad Prism v. 6.03 (GraphPad Software, Inc., San Diego, USA). Data were analyzed according to distribution along the normal Gaussian curve. IC50 values were obtained through non-linear regression, using results from three independent experiments carried out in duplicate. Differences between groups resulting from in vitro assays were evaluated by ANOVA (analysis of variance) testing, followed by the Student–Newman–Keuls test. This study considered a level of significance, corresponding to alpha (α) or “p” value, when results were less than or equal to 5%.

HCT-116 = test: alamarBlue cytotoxicity assay, HCT-116; settings: HCT-116, alamarBlue, 72 h of incubation
Method: as §1, §3

K562 = test: alamarBlue cytotoxicity assay, K562; settings: 72 h of incubation
Method: as §1, §3

CAF 2 = test: alamarBlue cytotoxicity assay, cancer-associated fibroblasts CAF 2; settings: CAF 2, alamarBlue, 72 h of incubation
Method: (§4) Two cancer-associated fibroblast populations (CAF1 and CAF2) were obtained as described by Sobral et al. (2011), from fragments of squamous cell carcinoma of the tongue that were removed from patients seen at the UNICAMP School of Dentistry in Piracicaba, São Paulo, Brazil.
(§5) Specimens were washed with PBS, fragmented, and placed in 25 cm^2 cell culture flasks containing 1 mL of DMEM medium supplemented with 10% FBS and an antibiotic, and then maintained in an incubator, at 37 °C, under 5% CO2. Cell growth was monitored daily, and the medium was replaced every 2–3 days. […] Type I collagen production as assessed by ELISA was also used as a marker of myofibroblast activity. Both CAF1 and CAF2 primary populations were maintained for a maximum of 12 passages, with CAF phenotype maintenance evaluated through immunocytochemical staining for the α-SMA antibody after each two passages. […]
(§6) To assess the cytotoxicity of the GLI inhibitor GANT61 (Sigma-Aldrich, St. Louis, MO, USA) in tumor and non-tumor cell lines, an alamarBlue assay (Sigma-Aldrich Chemical Co, St. Louis, MO, USA) was performed after 72 h of exposure to the inhibitor, as described by Ahmed et al., 1994 [46]. […] Absorbance was measured at 570 nm (reduced) and 595 nm (oxidized) wavelengths, using a Spectramax 190 plate reader (Molecular Devices; Sunnyvale, CA, USA). […]

CAF 1 = test: alamarBlue cytotoxicity assay, cancer-associated fibroblasts CAF 1; settings: CAF 1, alamarBlue, 72 h of incubation
Method: as §4, §5, §6

PBMC = test: alamarBlue cytotoxicity assay, PBMC; settings: 72 h of incubation
Method: Human peripheral blood mononuclear cells (PBMC) lymphocytes and monocytes) were obtained from the peripheral blood of healthy, non-smoking volunteers aged 25–35 years. None of the volunteers had used any type of drug or medication for at least 15 days prior to collection. Blood collection (5 mL) was performed in heparinized vials by trained professionals at the Laboratory of Tissue Engineering and Immunopharmacology (LETI, IGM-FIOCRUZ, Salvador, Brazil), using sterile disposable syringes. PBMCs were isolated by a standard protocol described by Dias et al. (2018). The institutional review board of the Gonçalo Moniz Institution, Oswaldo Cruz Foundation (IGM-FIOCRUZ), in Salvador, Bahia, Brazil, approved all experimental protocols (No.031019/2013). All participants provided written informed consent prior to participation in the study.
To assess the cytotoxicity of the GLI inhibitor GANT61 (Sigma-Aldrich, St. Louis, MO, USA) in tumor and non-tumor cell lines, an alamarBlue assay (Sigma-Aldrich Chemical Co, St. Louis, MO, USA) was performed after 72 h of exposure to the inhibitor, as described by Ahmed et al., 1994 [46]. Cells were distributed on 96-well plates at a density of 7 × 10^4 cells/mL for adhered cells, and 3 × 10^5 cells/mL for cells in suspension. All tested compounds were dissolved in DMSO, added to wells containing 100 µL of cells in complete medium, and then incubated for 72 h. […] Absorbance was measured at 570 nm (reduced) and 595 nm (oxidized) wavelengths, using a Spectramax 190 plate reader (Molecular Devices; Sunnyvale, CA, USA).
as §2, with “6.03 (GraphPad Software, Inc., San Diego, USA).” left out

HSC3 cells = test: Trypan blue exclusion cell viability assay
Method: To study the effects of GANT61 on HSC3 cell viability, cycle, and death patterns, 4 mL of cellular solution (containing 0.7 × 10^5 cells/mL) was placed on 6-well plates and incubated overnight, to allow adhesion. […] For cell cycle analysis, the effects of GANT61 on HSC3 cells were also evaluated after 12 h of treatment. Negative controls were treated with the vehicle (0.2% DMSO) used to dilute the GLI inhibitor, and 5-fluorouracil (5-FU, 17 μM) was used as a positive control. All experiments were carried out in duplicate and repeated no less than three times. Cell viability was determined by the trypan blue exclusion method, in which 90 μL aliquots were collected at several incubation periods, stained with 10 μL trypan blue, and counted in a Neubauer chamber, under optical microscopy, at 20× magnification (Olympus CX41 Olympus, Tokyo, Japan).

SCC9 = test: alamarBlue cytotoxicity assay, SCC9
Method: as §1, §3

Row | SMILES | pIC50 (HSC3) | pIC50 (HSC3; Homo sapiens, HSC-3, 72 h) | pIC50 (HepG2; Homo sapiens) | pIC50 (HCT-116; Homo sapiens) | pIC50 (K562; Homo sapiens) | pIC50 (CAF 2; Homo sapiens, Fibroblast) | pIC50 (CAF 1; Homo sapiens, Fibroblast) | pIC50 (PBMC; Homo sapiens) | number of viable cells (HSC3 cells; 17 µM, all incubation times) | pIC50 (SCC9; Homo sapiens, SCC-9, 72 h of incubation) | pIC50 (HepG2) | pIC50 (HCT-116) | pIC50 (K562) | pIC50 (CAF 2) | pIC50 (CAF 1) | pIC50 (PBMC) | viability of HSC3 cells (HSC3 cells; 18 and 36 µM, 24, 48 and 72 h, vs 0.2% DMSO) | pIC50 (SCC9; 72 h of incubation)
1 | O=c1[nH]cc(F)c(=O)[nH]1 [5-FU, 5-fluorouracil] | 4.78 | 4.77 | 5.89 | 5.39 | 4.74 | < 3.72 | < 3.72 | < 3.72 | reduced the number of viable cells | 3.84 | – | – | – | – | – | – | – | –
2 | CN(C)c1ccccc1CN1CCCN(Cc2ccccc2N(C)C)C1c1ccncc1 [GANT61] | 4.44 | – | – | – | – | – | – | – | – | – | < 3.94 | < 3.94 | < 3.94 | 4.15 | 5.44 | 4.06 | significantly reduce the viability | 4.08
